This is an account of results in PubChem BioAssay AID330 (DTP/NCI, 2004).

The experiment has as its system P388 leukemia ip, CD2F1 mice, survival T/C. Nature of the experiment: NCI In Vivo Anticancer Drug Screen. Data for tumor model P388 Leukemia (intraperitoneal) in CD2F1 (CDF1) mice. The settings on record: endpoint: median survival time, higher = longer survival. In a few lines:
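Mice carrying the transplanted tumor received test compound or vehicle. Survival was recorded in each group, and the value is the treated-group measurement divided by that of the vehicle-treated control group.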

[1] abbreviates: dose: 12.5 mg/kg/injection, schedule: Q01DX009 (ip), vehicle: saline with Tween-80.
Setting [2] is: dose: 25.0 mg/kg/injection, schedule: Q01DX009 (ip), vehicle: saline with Tween-80.
[3] abbreviates: dose: 50.0 mg/kg/injection, schedule: Q01DX009 (ip), vehicle: saline with Tween-80.
Where [4] appears, read: dose: 100.0 mg/kg/injection, schedule: Q01DX009 (ip), vehicle: saline with Tween-80.
Where [5] appears, read: dose: 200.0 mg/kg/injection, schedule: Q01DX009 (ip), vehicle: saline with Tween-80.
The mark [6] stands for this setting: dose: 100.0 mg/kg/injection, schedule: Q04DX002 (ip), vehicle: saline with Tween-80.
[7] abbreviates: dose: 50.0 mg/kg/injection, schedule: Q01DX009 (ip), vehicle: Klucel (hydroxypropylcellulose) (HPC).
The mark [8] stands for this setting: dose: 50.0 mg/kg/injection, schedule: Q01DX005 (ip), vehicle: Klucel (hydroxypropylcellulose) (HPC).
Where [9] appears, read: dose: 100.0 mg/kg/injection, schedule: Q01DX005 (ip), vehicle: Klucel (hydroxypropylcellulose) (HPC).
Setting [10] is: dose: 200.0 mg/kg/injection, schedule: Q01DX005 (ip), vehicle: Klucel (hydroxypropylcellulose) (HPC).
Setting [11] is: dose: 50.0 mg/kg/injection, schedule: Q01DX005 (ip), vehicle: saline with Tween-80.
Setting [12] is: dose: 200.0 mg/kg/injection, schedule: Q01DX005 (ip), vehicle: saline with Tween-80.

“And” between values parts separate entries of the source, which are not always exact repeats. Equal values may be shown once. Inconclusive results and toxic doses are left out. Bridge positions count the residues as written; N and C are the ends. Square brackets hold non-standard residues; d marks the D form. Peptide text beside a SMILES is read from it. NMeV = CN[CH](C(=O)O)C(C)C; Sar = CNCC(=O)O

For `CC(C)C1NC(=O)C(N)C(C)OC(=O)C(C(C)C)N(C)C(=O)CN(C)C(=O)C2CCCN2C1=O` (centres undefined) (tested in a mixture with another compound) (H-TVP[Sar][NMeV]; ester 1-C; configuration not given here), the T/C runs as follows: (dose: 15.0 micrograms/kg/injection, schedule: Q01DX009 (ip), vehicle: water) 163 % of control; (dose: 31.0 micrograms/kg/injection, schedule: Q01DX009 (ip), vehicle: water) 159 % of control; (dose: 62.0 micrograms/kg/injection, schedule: Q01DX009 (ip), vehicle: water) 164 % of control; (dose: 110.0 micrograms/kg/injection, schedule: Q01DX009 (ip), vehicle: other) 200 % of control; (dose: 125.0 micrograms/kg/injection, schedule: Q01DX009 (ip), vehicle: water) 179 % of control; (dose: 165.0 micrograms/kg/injection, schedule: Q01DX009 (ip), vehicle: other) 254 % of control. The T/C (dose: 250.0 micrograms/kg/injection, schedule: Q01DX009 (ip), vehicle: other) is 180 % of control and the T/C (dose: 250.0 micrograms/kg/injection, schedule: Q01DX009 (ip), vehicle: water) is 225 % of control.
For `O=C(/C=C/c1ccccc1)n1nnc2cc(Cl)c(Cl)cc21`, the T/C under setting [1] was 92 % of control; the T/C under setting [2] is 115 % of control; the T/C under setting [3] was 92 % of control; the T/C under setting [4] is 99 % of control; the T/C under setting [5] was 96 % of control.
Consider `Cc1c2cnccc2c(CO)c2[nH]c3ccccc3c12`, for which the T/C is, setting by setting: (dose: 12.5 mg/kg/injection, schedule: Q04DX002 (ip), vehicle: saline with Tween-80) 119 % of control; under setting [6], 163 % of control.
Regarding `CC1=C(C)C(=O)OC(C(C)(O)C2(O)CCC3(O)C4CC(Cl)C5(O)C(O)C=CC(=O)C5(C)C4CCC32C)C1` (centres undefined), the T/C reads like this: (dose: 10.0 mg/kg/injection, schedule: Q01DX005 (ip), vehicle: saline + alcohol) 106 % of control; (dose: 20.0 mg/kg/injection, schedule: Q01DX005 (ip), vehicle: saline + alcohol) 108 % of control; (dose: 25.0 mg/kg/injection, schedule: Q01DX005 (ip), vehicle: saline + alcohol) 104 % of control; (dose: 40.0 mg/kg/injection, schedule: Q01DX005 (ip), vehicle: saline + alcohol) 112 % of control; (dose: 50.0 mg/kg/injection, schedule: Q01DX005 (ip), vehicle: saline + alcohol) 100 % of control and 104 % of control; (dose: 80.0 mg/kg/injection, schedule: Q01DX005 (ip), vehicle: saline + alcohol) 117 % of control. Further, the T/C (dose: 100.0 mg/kg/injection, schedule: Q01DX005 (ip), vehicle: saline + alcohol) is 104 % of control (2×) and 120 % of control; the T/C (dose: 200.0 mg/kg/injection, schedule: Q01DX005 (ip), vehicle: saline + alcohol) was 99 % of control and 109 % of control and 111 % of control.
As to `COc1ccc(-c2oc3cc(OC)c(OC)c(OC)c3c(=O)c2O)cc1O`, the T/C reads like this: (dose: 25.0 mg/kg/injection, schedule: Q04DX003 (ip), vehicle: saline with Tween-80) 87 % of control; (dose: 50.0 mg/kg/injection, schedule: Q04DX003 (ip), vehicle: saline with Tween-80) 105 % of control; (dose: 100.0 mg/kg/injection, schedule: Q04DX003 (ip), vehicle: saline with Tween-80) 97 % of control; (dose: 200.0 mg/kg/injection, schedule: Q04DX003 (ip), vehicle: saline with Tween-80) 99 % of control.
Regarding `COc1ccc(OC)c(NC(=O)Sc2c(Cl)c(Cl)nc(Cl)c2Cl)c1`, the T/C under setting [7] was 120 % of control.
With `Cc1ccc(C(=O)c2cc3c([nH]c4ccccc43)c(C)c2C(=O)O)cc1`, the T/C was 103 % of control under setting [8], 92 % of control under setting [9] and 100 % of control under setting [10].
In the case of `NNS(=O)(=O)c1ccc(Cl)cc1`, the T/C is, setting by setting: (dose: 25.0 mg/kg/injection, schedule: Q01DX009 (ip), vehicle: other) 117 % of control; (dose: 50.0 mg/kg/injection, schedule: Q01DX009 (ip), vehicle: other) 113 % of control; (dose: 100.0 mg/kg/injection, schedule: Q01DX009 (ip), vehicle: other) 120 % of control; (dose: 200.0 mg/kg/injection, schedule: Q01DX009 (ip), vehicle: other) 120 % of control.
Consider `O=C(Oc1ccc(C2c3cc(OC(=O)c4ccccc4)c(OC(=O)c4ccccc4)cc3CC3C(=O)OCC32)cc1OC(=O)c1ccccc1)c1ccccc1` (centres undefined), for which the T/C was 88 % of control under setting [11] and 86 % of control under setting [12].
Consider `NC(=O)CNC(=O)NC(Cc1ccccc1)C(=O)O` (centres undefined), for which the T/C reads like this: under setting [11], 105 % of control; (dose: 100.0 mg/kg/injection, schedule: Q01DX005 (ip), vehicle: saline with Tween-80) 105 % of control; under setting [12], 86 % of control.
As for `O=C1c2ccccc2CC2CCCCC12` (centres undefined), the T/C is 103 % of control under setting [3], 102 % of control under setting [4] and 108 % of control under setting [5].
As to `O=[N+]([O-])c1cc([N+](=O)[O-])c2ccccc2c1NS(=O)(=O)c1ccc(Cl)c(Cl)c1Cl`, the T/C was 103 % of control and 122 % of control under setting [3]; 112 % of control under setting [4]; 106 % of control under setting [5].
For the compound `c1nc2c3c4c(sc3ncn2n1)CCCC4`, the T/C was 98 % of control under setting [8], 106 % of control under setting [9] and 91 % of control under setting [10].
With `Oc1ccccc1N=Nc1ccccc1O.[O]=[V]`, the T/C was 99 % of control (dose: 3.13 mg/kg/injection, schedule: Q01DX009 (ip), vehicle: Klucel (hydroxypropylcellulose) (HPC)); 107 % of control and 112 % of control (dose: 6.25 mg/kg/injection, schedule: Q01DX009 (ip), vehicle: Klucel (hydroxypropylcellulose) (HPC)); 100 % of control and 106 % of control (dose: 12.5 mg/kg/injection, schedule: Q01DX009 (ip), vehicle: Klucel (hydroxypropylcellulose) (HPC)); 90 % of control (dose: 25.0 mg/kg/injection, schedule: Q01DX009 (ip), vehicle: Klucel (hydroxypropylcellulose) (HPC)).
For `C/C(C#N)=C/c1ccccc1`, the T/C under setting [3] is 104 % of control and the T/C under setting [4] was 118 % of control.
For the compound `Clc1ccc2c(NCCCC3CCCN4CCCCC34)ccnc2c1` (centres undefined), the T/C runs as follows: under setting [8], 99 % of control; under setting [9], 98 % of control.
As to `CC1S(=O)(=O)OCCOS1(=O)=O`, the T/C was 162 % of control (dose: 12.5 mg/kg/injection, schedule: Q01DX005 (ip), vehicle: Klucel (hydroxypropylcellulose) (HPC)); 175 % of control and 275 % of control (dose: 25.0 mg/kg/injection, schedule: Q01DX005 (ip), vehicle: Klucel (hydroxypropylcellulose) (HPC)); 165 % of control and 288 % of control under setting [8].
As to `COc1ccc(/C=N\N=C(/[O-])c2ccccc2O)cc1.COc1ccc(/C=N\N=C(/[O-])c2ccccc2O)cc1.[Co+2]`, the T/C is, setting by setting: (dose: 50.0 mg/kg/injection, schedule: Q04DX002 (ip), vehicle: saline with Tween-80) 93 % of control; under setting [6], 98 % of control; (dose: 200.0 mg/kg/injection, schedule: Q04DX002 (ip), vehicle: saline with Tween-80) 96 % of control.
On to `Nc1ccccc1Sc1cc(Cl)nnc1Cl`, for which the T/C by setting is: under setting [3], 93 % of control; under setting [4], 95 % of control; under setting [5], 99 % of control.
Turning to `O=C(/C=C/c1ccccc1)[c-]1[c-][c-][c-][c-]1.[Fe].[c-]1[c-][c-][cH-][c-]1`, the T/C reads like this: under setting [8], 96 % of control; under setting [9], 109 % of control; under setting [10], 100 % of control.
Regarding `CCCCCCN(CCCCCC)P(=O)(N1CC1C)N1CC1C` (centres undefined), the T/C was 122 % of control under setting [1]; 95 % of control (dose: 12.5 mg/kg/injection, schedule: Q04DX003 (ip), vehicle: saline); 118 % of control under setting [2]; 95 % of control (dose: 25.0 mg/kg/injection, schedule: Q04DX003 (ip), vehicle: saline); 95 % of control (dose: 50.0 mg/kg/injection, schedule: Q04DX003 (ip), vehicle: saline).
As for `COc1cc(NC(=O)CCl)ccc(=O)c1`, the T/C was 95 % of control under setting [1] and 113 % of control under setting [2].
On to `O=S(=O)(Cc1ccccc1)/N=C\c1ccc(Cl)cc1`, for which the T/C by setting is: under setting [7], 95 % of control; (dose: 100.0 mg/kg/injection, schedule: Q01DX009 (ip), vehicle: Klucel (hydroxypropylcellulose) (HPC)) 103 % of control; (dose: 200.0 mg/kg/injection, schedule: Q01DX009 (ip), vehicle: Klucel (hydroxypropylcellulose) (HPC)) 104 % of control.
